The source of these data is patent US6235514A, “Nucleic acid molecules encoding isopentenyl monophosphate kinase, and methods of use” (Washington State University Research Foundation, priority 1999, dated 2001).

“And” between values parts separate entries of the source, which are not always exact repeats. Equal values may be shown once. Where only a bound is given, the exact number is not on record here.

Experiment [1] addresses T1, recombinant peppermint kinase (isopentenyl monophosphate kinase, SEQ ID NO:2) (Mentha piperita, UniProt P56848).
T1 sequence (P56848 98-405): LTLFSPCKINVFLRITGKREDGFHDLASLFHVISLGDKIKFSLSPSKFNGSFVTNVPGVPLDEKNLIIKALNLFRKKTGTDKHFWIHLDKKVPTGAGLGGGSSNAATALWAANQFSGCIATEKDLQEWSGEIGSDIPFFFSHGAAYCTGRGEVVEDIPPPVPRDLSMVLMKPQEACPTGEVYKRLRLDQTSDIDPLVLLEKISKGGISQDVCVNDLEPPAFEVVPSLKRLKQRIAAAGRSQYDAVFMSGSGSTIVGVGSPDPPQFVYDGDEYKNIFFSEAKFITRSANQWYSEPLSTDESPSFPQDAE
In words: Kinase assay, recombinant peppermint IP kinase, crude extracts of transformed E. coli. The experiment is classed as biochemical, peppermint (Mentha x piperita). The conditions noted are these: crude extract, standard assay conditions.

Experiment [2] concerns E. coli background (repressed, 0.02% glucose). In words: Kinase assay, E. coli background (repressed) controls. The experiment is classed as biochemical. The conditions noted are these: crude extract, transgene repressed with 0.02% glucose; rates are minimums.
Experiment [3] addresses E. coli IP kinase (ychB, SEQ ID NO:6) (Escherichia coli, UniProt P62615). In words: Kinase assay, recombinant E. coli IP kinase (induced), crude extracts. The format is biochemical. To be noted: crude extract, induced with 0.02% arabinose; rates are minimums.
Experiment [4] has as its target E. coli IP kinase (ychB, SEQ ID NO:6), partially purified (Escherichia coli, UniProt P62615). In words: Kinase assay, partially purified recombinant E. coli IP kinase. The experiment is classed as biochemical. To be noted: for Phosphorylating activity with substrate, in words, partially purified E. coli kinase: partially purified protein; for Cofactor / phosphate donor requirement of kinase activity: IP as substrate, partially purified E. coli kinase.

Experiment [5] has as its system isolated peppermint oil gland secretory cells. Nature of the experiment: Feeding studies with isolated peppermint oil gland secretory cells, incorporation into terpenoids. The format is cell-based, peppermint (Mentha x piperita L. cv. Black Mitcham). The conditions noted are these: radiolabeled precursor, 23° C., 2 h; average of two experiments; includes geraniol and farnesol. How it is done:
Isolation of and Feeding Studies with Peppermint Oil Gland Secretory Cells: Leaves (15-20 g; <10 mm in length) were excised from peppermint plants (Mentha x piperita L. cv. Black Mitcham) and the oil gland secretory cells were isolated by the glass bead abrasion method (McCaskill, D. & Croteau, R., Planta, 197:49-56 [1995]). Following isolation, the secretory cells were washed with 25 mM Tris/HCl buffer (pH 7.3) containing 200 mM sorbitol, 10 mM sucrose, 5 mM MgCl2, 10 mM KCl, 1 mM ethyleneglycol bis(β-aminoethyl ether), 8.5 mM Na2 HPO4, and 0.1 mM Na4 P2 O7, and then suspended in the same buffer supplemented with 2 mM ATP, 0.1 mM NADPH, 0.1 mM NAD^+, 5 mM phosphoenol pyruvate, and 5 mM glucose-6-phosphate. Cell density was determined using a hemocytometer and was adjusted to 1-2×10^5 cellular disks (each containing eight secretory cells) per milliliter suspension. Aliquots (1-1.5 ml) were transferred to 15 ml screw-cap glass vials, and the suspended cells were aerated and incubated at 23° C. for 2 h. At the end of the incubation period, the suspension was extracted three times with 1 ml diethyl ether. The combined organic extract was washed with 1 ml of 1 M Na2 CO3 and dried over Na2 SO4. An aliquot was removed for liquid scintillation counting and, to the remainder, authentic standards (10-50 μg each) of isopentenol, dimethylallyl alcohol, geraniol, farnesol, limonene, menthone, menthol, pulegone, humulene, and caryophyllene were added. These extracts were then slowly concentrated on ice under a gentle stream of N2 to ~200 μl, and were then transferred to conical glass vials and further concentrated to 5-10 μl at 20° C. in preparation for chromatographic analysis.
Radio-GLC Analysis of Peppermint Isoprenoids: Radio-GC was performed according to a published method (Croteau, R. & Satterwhite, D. M. J. Chromatog. 500:349-354 [1990]) with several modifications; 0.25 mm i.d.×30 m AT 1000 fused silica column with 0.2 μm film thickness (Alltech); helium carrier gas at 3-6 ml/min^-1; temperature program from 70 to 200° C. at 5° C./min^-1; injector at 200° C.; thermal conductivity detector at 220° C. and 140 mA; propane quench gas at 10-15 ml/min^-1. The relative peak area corresponding to each biosynthetic product was converted to dpm as a fraction of the total radioactivity determined by liquid scintillation counting prior to concentration. The absolute amount of each component formed was then calculated based on the specific activity of the corresponding radiolabeled substrate.

E. coli IP kinase (ychB, SEQ ID NO:6), partially purified, sequence (P62615 whole entry): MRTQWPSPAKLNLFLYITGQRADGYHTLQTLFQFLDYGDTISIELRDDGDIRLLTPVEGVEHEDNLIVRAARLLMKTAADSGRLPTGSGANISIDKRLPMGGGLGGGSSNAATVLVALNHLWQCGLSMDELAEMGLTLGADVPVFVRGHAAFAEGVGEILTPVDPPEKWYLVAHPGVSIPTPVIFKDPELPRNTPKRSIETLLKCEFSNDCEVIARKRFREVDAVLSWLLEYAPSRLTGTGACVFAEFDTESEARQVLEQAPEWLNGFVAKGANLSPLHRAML
E. coli IP kinase (ychB, SEQ ID NO:6), sequence (P62615 whole entry): as above

Regarding `C[C@](O)(CO)[C@H](O)COP(=O)(O)O` [MEP, 2-C-methylerythritol-4-phosphate], in experiment [1], the “Kinase activity with substrate, recombinant peppermint kinase” value is reported as “less than 0.2 pmol (s g protein)^-1”. Also, in experiment [2], the “Rate (kinase activity with substrate), E. coli (repressed)” value is less than 0.2 pmol/s · g protein. In addition, the “Rate (kinase activity with substrate), E. coli (induced)” value in experiment [3] was less than 0.2 pmol/s · g protein. Moreover, the “Phosphorylating activity with substrate, in words, partially purified E. coli kinase” value in experiment [4] is “no phosphorylating activity was detectable”. As to `O=c1ccn([C@@H]2O[C@H](COP(=O)(O)OP(=O)(O)OP(=O)(O)O)[C@@H](O)[C@H]2O)c(=O)[nH]1` [UTP], the “Cofactor / phosphate donor requirement of kinase activity” value (from here on “Cofactor / phosphate donor requirement”) in experiment [4] is “did not serve as alternate phosphate donors”. Regarding `CC(C)=CCO` [DMA, dimethylallyl alcohol], the “Kinase activity with substrate, recombinant peppermint kinase” value in experiment [1] was ≤ 0.01 pmol (s g protein)^-1. Further, the “Rate (kinase activity with substrate), E. coli (repressed)” value in experiment [2] is recorded as less than 0.01 pmol/s · g protein. The “Rate (kinase activity with substrate), E. coli (induced)” value in experiment [3] is less than 0.01 pmol/s · g protein. Besides, the “Rate (kinase activity with substrate), E. coli (partially purified)” value in experiment [4] (Ni2+ affinity-purified enzyme, averages with standard deviation) came out at 11 ± 5 pmol/s · g protein. Further, the “Phosphorylating activity with substrate, in words, partially purified E. coli kinase” value in experiment [4] was “readily catalyzed the conversion”. The “Total Terpenoids (C10 + C15), rate of incorporation into total monoterpenoids and sesquiterpenoids” value (“Total Terpenoids (C10 + C15), rate” for short) in experiment [5] was “negligible”. For `CC(C)=CCOP(=O)(O)O` [DMAP, dimethylallyl monophosphate], the “Total Terpenoids (C10 + C15), rate” value in experiment [5] was 6 pmol (h 10^5 cell clusters)^-1 and < 6 pmol (h 10^5 cell clusters)^-1. Still for that read-out and setting: the same measure for `CC(C)=CCOP(=O)(O)OP(=O)(O)O` [DMAPP, dimethylallyl diphosphate]: 4 pmol (h 10^5 cell clusters)^-1 and < 6 pmol (h 10^5 cell clusters)^-1.

Regarding `C=C(C)CCO` [ISO, isopentenol], in experiment [5], the “Total Terpenoids (C10 + C15), rate” value is reported as 304 pmol (h 10^5 cell clusters)^-1. On to `Nc1ccn([C@@H]2O[C@H](COP(=O)(O)OP(=O)(O)OP(=O)(O)O)[C@@H](O)[C@H]2O)c(=O)n1` [CTP], for which, in experiment [4], the “Cofactor / phosphate donor requirement” value is listed as “did not serve as alternate phosphate donors”. Regarding `C=C(C)CCOP(=O)(O)OP(=O)(O)O` [IPP, isopentenyl diphosphate], in experiment [5], the “Total Terpenoids (C10 + C15), rate” value is listed as 561 pmol (h 10^5 cell clusters)^-1.

Take `[Cl-].[Cl-].[Mg+2]` [MgCl2]: the “Cofactor / phosphate donor requirement” value in experiment [4] is “dependent upon the presence”. Consider `Nc1nc2c(ncn2[C@@H]2O[C@H](COP(=O)(O)OP(=O)(O)OP(=O)(O)O)[C@@H](O)[C@H]2O)c(=O)[nH]1` [GTP], for which the “Cofactor / phosphate donor requirement” value in experiment [4] is listed as “did not serve as alternate phosphate donors”. Turning to `Nc1ncnc2c1ncn2[C@@H]1O[C@H](COP(=O)(O)OP(=O)(O)OP(=O)(O)O)[C@@H](O)[C@H]1O` [ATP], the “Cofactor / phosphate donor requirement” value in experiment [4] was “dependent upon the presence”. Take `C=C(C)CCOP(=O)(O)O` [IP, isopentenyl monophosphate]: the “Total Terpenoids (C10 + C15), rate” value in experiment [5] was 43 pmol (h 10^5 cell clusters)^-1.
